System: 439559-082-T-J2-PDC spheroid viability
Assay: Anticancer human tumor 439559-082-T-J2-PDC patient-derived colon adenocarcinoma cell line growth inhibition [POLQ]
Details: spheroids with HUVEC and MSC; for IC50: curve of first compound; for viability, T/C: stronger effect = lower value
How it was run: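 PDC + HUVEC + MSC complex spheroids; POLQ inhibitors ± partner drugs; top conc. at/near clinical Cmax, else 10 microM (SN-38 1 microM), half-log dilutions; 37 degrees C, 5% CO2.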

[1] = second compound 0.0316 µM, first compound 0.0316 µM
[2] = second compound 0.0316 µM, first compound 0.1 µM
[3] = second compound 0.0316 µM, first compound 0.316 µM
[4] = second compound 0.0316 µM, first compound 1 µM
[5] = second compound 0.0316 µM, first compound 3.16 µM
[6] = second compound 0.0316 µM, first compound 10 µM
[7] = second compound 0.1 µM, first compound 0.0316 µM
[8] = second compound 0.1 µM, first compound 0.1 µM
[9] = second compound 0.1 µM, first compound 0.316 µM
[10] = second compound 0.1 µM, first compound 1 µM
[11] = second compound 0.1 µM, first compound 3.16 µM
[12] = second compound 0.1 µM, first compound 10 µM
[13] = second compound 0.316 µM, first compound 0.0316 µM
[14] = second compound 0.316 µM, first compound 0.1 µM
[15] = second compound 0.316 µM, first compound 0.316 µM
[16] = second compound 0.316 µM, first compound 1 µM
[17] = second compound 0.316 µM, first compound 3.16 µM
[18] = second compound 0.316 µM, first compound 10 µM
[19] = second compound 1 µM, first compound 0.0316 µM
[20] = second compound 1 µM, first compound 0.1 µM
[21] = second compound 1 µM, first compound 0.316 µM
[22] = second compound 1 µM, first compound 1 µM
[23] = second compound 1 µM, first compound 3.16 µM
[24] = second compound 1 µM, first compound 10 µM
[25] = second compound 3.16 µM, first compound 0.0316 µM
[26] = second compound 3.16 µM, first compound 0.1 µM
[27] = second compound 3.16 µM, first compound 0.316 µM
[28] = second compound 3.16 µM, first compound 1 µM
[29] = second compound 3.16 µM, first compound 3.16 µM
[30] = second compound 3.16 µM, first compound 10 µM
[31] = second compound 10 µM, first compound 0.0316 µM
[32] = second compound 10 µM, first compound 0.1 µM
[33] = second compound 10 µM, first compound 0.316 µM
[34] = second compound 10 µM, first compound 1 µM
[35] = second compound 10 µM, first compound 3.16 µM
[36] = second compound 10 µM, first compound 10 µM
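Note: spheroids exposed to compounds for seven days before readout.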
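Throughout, for viability, T/C: 100% = DMSO vehicle control viability.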

## CC1COCCN1c1cc(C2(S(C)(=N)=O)CC2)nc(-c2ccnc3[nH]ccc23)n1 (centres undefined) + COC1C(OC(N)=O)C(O)C(Oc2ccc3c(O)c(NC(=O)c4ccc(O)c(CC=C(C)C)c4)c(=O)oc3c2C)OC1(C)C
Second compound 0.0316 µM
  IC50: > 10 µM
Second compound 0.1 µM
  IC50: > 10 µM
Second compound 0.316 µM
  IC50: > 10 µM
Second compound 1 µM
  IC50: > 10 µM
Second compound 3.16 µM
  IC50: > 10 µM
Second compound 10 µM
  IC50: > 10 µM
[1]
  viability, T/C: 97.4%
[2]
  viability, T/C: 98.2%
[3]
  viability, T/C: 94%
[4]
  viability, T/C: 101%
[5]
  viability, T/C: 89.8%
[6]
  viability, T/C: 65.8%
[7]
  viability, T/C: 100%
[8]
  viability, T/C: 101%
[9]
  viability, T/C: 105%
[10]
  viability, T/C: 92.6%
[11]
  viability, T/C: 89.7%
[12]
  viability, T/C: 66.4%
[13]
  viability, T/C: 101%
[14]
  viability, T/C: 91.2%
[15]
  viability, T/C: 93.5%
[16]
  viability, T/C: 94.8%
[17]
  viability, T/C: 90.2%
[18]
  viability, T/C: 67%
[19]
  viability, T/C: 95%
[20]
  viability, T/C: 99.3%
[21]
  viability, T/C: 91.7%
[22]
  viability, T/C: 86.6%
[23]
  viability, T/C: 88.8%
[24]
  viability, T/C: 66.8%
[25]
  viability, T/C: 94.7%
[26]
  viability, T/C: 96.7%
[27]
  viability, T/C: 89.7%
[28]
  viability, T/C: 90.8%
[29]
  viability, T/C: 87.2%
[30]
  viability, T/C: 64%
[31]
  viability, T/C: 99.7%
[32]
  viability, T/C: 97.4%
[33]
  viability, T/C: 103%
[34]
  viability, T/C: 89.4%
[35]
  viability, T/C: 86.1%
[36]
  viability, T/C: 63.9%

## COc1ccc([C@@H](O)c2cc(-c3ncnc4cc(N5CCOCC5)ccc34)c(F)cc2Cl)nn1 + COC1C(OC(N)=O)C(O)C(Oc2ccc3c(O)c(NC(=O)c4ccc(O)c(CC=C(C)C)c4)c(=O)oc3c2C)OC1(C)C
Second compound 0.0316 µM
  IC50: > 10 µM
Second compound 0.1 µM
  IC50: > 10 µM
Second compound 0.316 µM
  IC50: > 10 µM
Second compound 1 µM
  IC50: > 10 µM
Second compound 3.16 µM
  IC50: > 10 µM
Second compound 10 µM
  IC50: > 10 µM
[1]
  viability, T/C: 101%
[2]
  viability, T/C: 96.5%
[3]
  viability, T/C: 99.1%
[4]
  viability, T/C: 95.1%
[5]
  viability, T/C: 90.7%
[6]
  viability, T/C: 77.3%
[7]
  viability, T/C: 109%
[8]
  viability, T/C: 96.4%
[9]
  viability, T/C: 93.5%
[10]
  viability, T/C: 95.1%
[11]
  viability, T/C: 83.3%
[12]
  viability, T/C: 71.7%
[13]
  viability, T/C: 107%
[14]
  viability, T/C: 101%
[15]
  viability, T/C: 92.6%
[16]
  viability, T/C: 91.2%
[17]
  viability, T/C: 89.9%
[18]
  viability, T/C: 74.3%
[19]
  viability, T/C: 100%
[20]
  viability, T/C: 94%
[21]
  viability, T/C: 92.9%
[22]
  viability, T/C: 87.9%
[23]
  viability, T/C: 86.5%
[24]
  viability, T/C: 70.9%
[25]
  viability, T/C: 96.6%
[26]
  viability, T/C: 91.8%
[27]
  viability, T/C: 97.7%
[28]
  viability, T/C: 92%
[29]
  viability, T/C: 82.3%
[30]
  viability, T/C: 79.5%
[31]
  viability, T/C: 102%
[32]
  viability, T/C: 99.9%
[33]
  viability, T/C: 86.5%
[34]
  viability, T/C: 86.4%
[35]
  viability, T/C: 78%
[36]
  viability, T/C: 76.5%
